Values of other authors, collected in patent US9913833B2, “Methods of treating developmental disorders using pipradrol” (Ovid Therapeutics Inc., priority 2015, dated 2018).

Tested on: depression
Details: published study on 111 individuals with depression

## OC(c1ccccc1)(c1ccccc1)C1CCCCN1 (stereo not shown) [pipradrol]
  efficacy in depression compared with placebo: not superior to placebo
